Results published in US6596718B1, “7-Morpholin-4yl-benzothiazole amide derivatives” (Hoffmann-La Roche Inc., priority 2001, dated 2003).

How the values were obtained:
[1] = target: T1, human adenosine A1 receptor (Homo sapiens, UniProt P30542); assay: [3H]-DPCPX binding assay, human adenosine A1 receptor (SPA, CHO cell membranes); conditions: recombinant human A1 in CHO membranes; [3H]-DPCPX 0.6 nM; Ki by Cheng-Prussoff; read-out: hA1 (pKi) (converted)
T1 construct: expressed in transfected cells; host or cells: CHO cells, Semliki Forest virus expression system; membrane preparation
T1 sequence (P30542 1-326): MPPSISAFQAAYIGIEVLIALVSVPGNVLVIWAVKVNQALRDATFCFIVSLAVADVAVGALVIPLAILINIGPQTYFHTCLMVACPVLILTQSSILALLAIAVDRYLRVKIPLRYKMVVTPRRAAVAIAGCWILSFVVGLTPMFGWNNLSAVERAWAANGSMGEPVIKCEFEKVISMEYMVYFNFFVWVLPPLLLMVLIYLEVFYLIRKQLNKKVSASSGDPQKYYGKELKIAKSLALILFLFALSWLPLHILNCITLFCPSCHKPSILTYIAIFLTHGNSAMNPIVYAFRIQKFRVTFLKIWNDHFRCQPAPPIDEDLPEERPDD
Experimental: Human Adenosine A1 Receptor
(§1) The human adenosine A1 receptor was recombinantly expressed in chinese hamster ovary (CHO) cells using the semlilki forest virus expression system. Cells were harvested, washed twice by centrifugation, homogenized and again washed by centrifugation. The final washed membrane pellet was suspended in a Tris (50 mM) buffer containing 120 mM NaCl, 5 mM KCl, 2 mM CaCl2 and 10 mM MgCl2 (pH 7.4) (buffer A). The [^3H]-DPCPX (([propyl-^3H]8-cyclopentyl-1,3-dipropyxanthine); 0.6 nM) binding assay was carried out in 96-well plates in the presence of 2.5 μg of membrane protein, 0.5 mg of Ysi-poly-l-lysine SPA beads and 0.1 U adenosine deaminase in a final volume of 200 μl of buffer A. Non-specific binding was defined using xanthine amine congener (XAC; 2 μM). Compounds were tested at 10 concentrations from 10 μM-0.3 nM. All assays were conducted in duplicate and repeated at least two times. Assay plates were incubated for 1 hour at room temperature before centrifugation and then bound ligand determined using a Packard Topcount scintillation counter. IC50, the concentration where 50% of the […] binding is displaced, values were calculated using a non-linear curve fitting program and ki values calculated using the Cheng-Prussoff equation.

[2] = target: T2, human adenosine A2A receptor (Homo sapiens, UniProt P29274); assay: [3H]-SCH-58261 binding assay, human adenosine A2A receptor (SPA, CHO cell membranes); conditions: recombinant human A2A in CHO membranes; [3H]-SCH-58261 1 nM; Ki by Cheng-Prussoff; read-out: hA2 (pKi) (converted)
T2 construct: expressed in transfected cells; host or cells: CHO cells, Semliki Forest virus expression system; membrane preparation
T2 sequence (P29274 whole entry): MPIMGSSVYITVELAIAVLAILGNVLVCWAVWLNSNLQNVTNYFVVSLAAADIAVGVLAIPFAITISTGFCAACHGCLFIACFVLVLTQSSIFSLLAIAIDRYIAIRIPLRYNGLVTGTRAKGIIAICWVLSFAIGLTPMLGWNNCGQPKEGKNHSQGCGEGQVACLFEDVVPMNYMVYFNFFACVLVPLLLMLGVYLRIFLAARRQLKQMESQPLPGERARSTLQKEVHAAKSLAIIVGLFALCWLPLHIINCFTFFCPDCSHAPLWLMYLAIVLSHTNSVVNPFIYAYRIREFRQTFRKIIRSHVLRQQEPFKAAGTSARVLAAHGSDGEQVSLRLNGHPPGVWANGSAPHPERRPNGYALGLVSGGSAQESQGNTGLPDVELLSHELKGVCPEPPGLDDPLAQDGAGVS
Experimental: Human Adenosine A2A Receptor
as §1, with “adenosine A2A” for “adenosine A1”, “(buffer A)” for “(buffer A).”, “The [^3H]-SCH-58261 (Dionisotti et al., 1997, Br J Pharmacol 121, 353; 1” for “The [^3H]-DPCPX (([propyl-^3H]8-cyclopentyl-1,3-dipropyxanthine); 0.6”, “counter. IC50 values,” for “counter. IC50,”, “displaced,” for “displaced, values”, “and Ki” for “and ki”

Row | SMILES | Ki [1] | melting point | Ki [2]
1 | COc1ccc(N2CCOCC2)c2sc(C(=O)Nc3cccnc3)nc12 [Example 9, 4-Methoxy-7-morpholin-4-yl-benzothiazole-2-carboxylic acid pyridin-3-ylamide] | 3980 nM | 220 to 221 °C | 15.8 nM
2 | COc1ccc(N2CCOCC2)c2sc(C(N)=O)nc12 [Example 1, 4-Methoxy-7-morpholin-4-yl-benzothiazole-2-carboxylic Acid Amide] | 3980 nM | 228 to 230 °C | 25.1 nM
3 | COc1ccccc1CNC(=O)c1nc2c(OC)ccc(N3CCOCC3)c2s1 [Example 25, 4-Methoxy-7-morpholin-4-yl-benzothiazole-2-carboxylic acid 2-methoxy-benzylamide] | 7940 nM | 186 to 188 °C | 25.1 nM

Second part, the compound after the results:

Row | Ki [1] | melting point | Ki [2] | SMILES
4 | 501 nM | 109 to 111 °C | 25.1 nM | COc1ccc(N2CCOCC2)c2sc(C(=O)NCCc3cccc(Cl)c3)nc12 [Example 65, 4-Methoxy-7-morpholin-4-yl-benzothiazole-2-carboxylic acid [2-(3-chloro-phenyl)-ethyl]-amide]
5 | 200 nM | 127 to 129 °C | 1.26 nM | COc1ccc(N2CCOCC2)c2sc(C(=O)NC(C)Cc3cccs3)nc12 (stereo not drawn) [Example 81, 4-Methoxy-7-morpholin-4-yl-benzothiazole-2-carboxylic acid (1-methyl-2-thiophen-2-yl-ethyl)-amide]
